Columns and labels:
RV (Wa strain RV) [1] = assay: Effect of Z-ligustilide in resisting RV synthesis (MTT, MA104 cells); format: cell-based, Rotavirus (RV); conditions: for inhibition rate against RV (resisting biosynthesis): drug after virus, 48 h
Description: (§1) The formula of the viral inhibition rate is: {(Adrug group−Avirus group)/(Anormal group−Avirus group)×100%}
100TCID50 virus solution (the virus acts with 10 μg/mL pancreatin for 30 min) is added in a 96-well culture plate of MA104-2 cells that grow to a single layer, at an amount of 100 μL/well. The cells have been washed twice with PBS. A normal cell control group is set, and added with an equal volume of DMEM culture solution. Incubation is conducted in 5% CO2 at 37° C. for 2 h, the virus solution is sucked out, and drug solution and ribavirin of different concentrations are added respectively at an amount of 100 μL/well. A viral control group is set, and only added with the cell maintenance medium at an amount of 100 μL/well. Incubation is conducted in 5% CO2 at 37° C. for continuous observation. After continuous culture for 48 h, an MTT kit is used for detection. 1/10 volume of MTT solution is added in each well and incubated in an incubator. After 4 h, the supernatant is sucked out, DMSO is added, and the absorbance is measured and recorded at a wavelength of 490 nm. The experiment is repeated for 3 times. The viral inhibition rate of the drug is calculated.

RV (Wa strain RV) [2] = assay: Effect of Z-ligustilide in resisting RV adsorption (MTT, MA104 cells); format: cell-based, Rotavirus (RV); conditions: for inhibition rate against RV (resisting adsorption): drug 2 h before virus, 48 h
Description: The drug solution is added in a 96-well culture plate of MA104 cells that grow to a single layer, and each drug solution is added in 6 wells at an amount of 100 μL/well. An equal volume of ribavirin is added to the positive control group, and only an equal volume of DMEM culture solution (without serum) is added to the normal cell control group and the viral control group. Incubation is conducted in 5% CO2 at 37° C. for 2 h. The drug solution is sucked out. Except the normal cell control group, 100TCID50 virus is added (the virus acts with 10 μg/mL pancreatin at 37° C. for 30 min) at an amount of 100 μL/well. Incubation is conducted in 5% CO2 at 37° C. for 2 h. The virus is sucked out, the cell maintenance medium is added at an amount of 200 μL/well. Incubation is conducted in 5% CO2 at 37° C. for continuous observation. After culture for 48 h, an MTT kit is used for detection. 1/10 volume of MTT solution is added in each well and incubated in an incubator. After 4 h, the supernatant is sucked out, DMSO is added, and the absorbance is measured and recorded at a wavelength of 490 nm. The experiment is repeated for 3 times.
as §1

RV (Wa strain RV) [3] = assay: Effect of Z-ligustilide in directly killing RV (MTT, MA104 cells); format: cell-based, Rotavirus (RV); conditions: for inhibition rate against RV (directly killing): drug mixed with virus 2 h, 48 h
Description: The drug is mixed with 100TCID50 virus solution (the virus acts with 10 μg/mL pancreatin for 30 min) at an equal volume to act for 2 h. After the cells are washed twice with PBS, the cells are added in a 96-well culture plate of MA104 cells that grow to a single layer. The same operation as above is conducted for ribavirin and RV in the positive control group, and only an equal volume of DMEM is added to the normal cell control group and the viral control group. Incubation is conducted in 5% CO2 at 37° C. for 2 h, the mixed solution is sucked out, and the cell maintenance medium is added at an amount of 100 μL/well. Incubation is conducted in 5% CO2 at 37° C. for continuous observation. After continuous culture for 48 h, an MTT kit is used for detection. 1/10 volume of MTT solution is added in each well and incubated in an incubator. After 4 h, the supernatant is sucked out, DMSO is added, and the absorbance is measured and recorded at a wavelength of 490 nm. The experiment is repeated for 3 times. The viral inhibition rate of the drug is calculated. The formula of the viral inhibition rate is: {(Adrug group−Avirus group)/(Anormal group−Avirus group)×100%}

MA104 cells = assay: Toxicity of Z-ligustilide to MA104 cells (MTT assay); format: cell-based; conditions: 48 h
Description: According to the common drug concentration range of Z-ligustilide, the cytotoxicity pre-experiment is performed in the range of 1-100 μM in this experiment. The MA104 cells at the logarithmic phase are observed under a microscope, the cellular morphology is uniform and full with clear edges, and when the number reaches 80%, digestion, centrifugation and re-suspension are conducted. After further dilution, 10 μl of the suspension is taken on a blood cell counting plate to count and calculate the required cell volume. Then, the cells are laid in a 96-well plate, 100 μl of cell suspension is added in each well, and the cell density is 8×10^4 cells/mL. When the cells adhere to the wall to form a single layer, the drug group is administered, and the normal group is added with an equal volume of DMEM (without serum). After incubation for 48 h, the cytotoxicity of Z-ligustilide is detected by MTT reagent. 1/10 volume of MTT solution is added in each well and incubated in an incubator. After 4 h, the solution in the wells is sucked out, 150 μL of DMSO is added in each well, and the absorbance is measured and recorded at a wavelength of 490 nm under the condition of oscillation for 30 s.
The formula of the relative survival rate of the cells is: {(Aexperimental group−Ablank)/(Acontrol group−Ablank)×100%}

[4] = test system: structural protein VP6 of RV; assay: Gene expression level of structural protein VP6 of RV in RV-infected MA104 cells (real time PCR); format: cell-based, Rotavirus (RV), Wa strain; conditions: for VP6 expression level compared with the RV group: 48 h, GAPDH internal reference
Description: (1) To further verify whether Z-ligustilide has an effect of inhibiting RV synthesis, after Z-ligustilide inhibits RV synthesis for 48 h, drug groups of low, medium and high concentrations, the ribavirin group, the N group and the RV group are selected, the supernatant is removed, the solution is washed twice with PBS, 1 ml of Trizol reagent is added, and then the solution is collected into a 1.5 mL enzyme-free EP tube after standing for 5 min. 200 μL of chloroform is added in the tube. After vortex oscillation for 15 s, the solution is stood at room temperature for 3 min, and centrifuged (4° C., 12000 r/min, 15 min). The centrifuged sample is divided into three layers: a colorless upper layer, a white middle layer and a red lower layer.
(2) The supernatant is carefully sucked into a new 1.5 mL enzyme-free EP tube (with a volume of about 500 μL), and an equal volume of pre-cooled isopropanol is added. The solution is shaken up and down violently, mixed well, stood at 4° C. for 10 min, and centrifuged (4° C., 12000 r/min, 10 min).
(3) After centrifugation, white precipitate can be seen at the bottom of the EP tube. The supernatant is removed, and the precipitate is retained. 1 mL of the prepared 75% ethanol solution (prepared from anhydrous ethanol and enzyme-free water at a ratio of 3:1) is added, shaken and mixed well, and centrifuged (4° C., 12000 r/min, 5 min). The supernatant is discarded, and the solution is stood at room temperature for 15-20 min for drying.
(4) After drying, 20 μL of DEPC water is added in the EP tube, and the tube wall is gently blown to dissolve RNA. The RNA concentration of the sample is determined by a NanoDrop micro ultraviolet spectrophotometer, and then the sample can be used directly for the experiment or stored at −80° C. for later use.
A reaction mixture is prepared on ice according to the following components in a reaction volume of 20 μL in accordance with the instructions of Evo M-MLV RT Kit with gDNA Clean for qPCR II. The consumables used in the experiment are all Axygen enzyme-free consumables.
Reaction conditions: 42° C. 2 min, 4° C.
The reaction solution is prepared according to the following table, and the reverse transcription reaction is performed.
Reaction conditions: 37° C. 15 min, 85° C. 5 sec, 4° C.
Real time quantitative PCR is used to detect the control group and the RVWa strain-infected group by SYBR Green I fluorescent labeling. SYBR® Green Premix Pro Taq HS qPCR Kit II is used, and GAPDH is selected as the internal reference. In the experiment, dedicated real-time eight-row PCR tubes for Axygen are used for preparing a real-time fluorescence quantitative PCR amplification reaction system according to the following table, and the reaction solution is prepared on ice (the total reaction system is 10 μL).

[5] = 1st of six values printed for 65-90 μM
[6] = 2nd of six values printed for 65-90 μM
[7] = 3rd of six values printed for 65-90 μM
[8] = 4th of six values printed for 65-90 μM
[9] = 5th of six values printed for 65-90 μM
[10] = 6th of six values printed for 65-90 μM

CCC/C=C1\OC(=O)C2=C1CCC=C2 [Z-ligustilide]
effect of inhibiting RV biosynthesis (RV (Wa strain RV) [1]): has an effect of inhibiting RV biosynthesis
inhibition rate against RV (resisting biosynthesis) (RV (Wa strain RV) [1]; 80 µM, without statistical difference from the ribavirin group): 64.21%
inhibition of rotavirus biosynthesis (RV (Wa strain RV) [1]; 70-85 μM): can effectively inhibit rotavirus biosynthesis
inhibition rate against RV (resisting biosynthesis) (RV (Wa strain RV) [1]; 70-85 μM): more than 50%
inhibition rate against RV (resisting adsorption) (RV (Wa strain RV) [2]; [5]): 4.85%
inhibition rate against RV (resisting adsorption) (RV (Wa strain RV) [2]; [6]): 4.55%
inhibition rate against RV (resisting adsorption) (RV (Wa strain RV) [2]; [7]): 1.14%
inhibition rate against RV (resisting adsorption) (RV (Wa strain RV) [2]; [8]): 3.95%
inhibition rate against RV (resisting adsorption) (RV (Wa strain RV) [2]; [9]): 3.01%
inhibition rate against RV (resisting adsorption) (RV (Wa strain RV) [2]; [10]): 4.69%
effect of resisting RV adsorption (RV (Wa strain RV) [2]; 65-90 μM): no obvious effect
maximum inhibition rate (resisting adsorption) (RV (Wa strain RV) [2]; within 65-90 μM): about 4.85%
inhibition rate against RV (directly killing) (RV (Wa strain RV) [3]; [5]): 2.32%
inhibition rate against RV (directly killing) (RV (Wa strain RV) [3]; [6]): 3.25%
inhibition rate against RV (directly killing) (RV (Wa strain RV) [3]; [7]): 0.93%
inhibition rate against RV (directly killing) (RV (Wa strain RV) [3]; [8]): 0.4%
inhibition rate against RV (directly killing) (RV (Wa strain RV) [3]; [9]): 6.45%
inhibition rate against RV (directly killing) (RV (Wa strain RV) [3]; [10]): 5.89%
effect of directly killing RV (RV (Wa strain RV) [3]; 65-90 μM): no obvious effect
drug toxicity to the cells (MA104 cells; 60-95 μM): no drug toxicity
cell viability versus the normal group (MA104 cells; 65-90 μM): no significant difference
average survival rate (MA104 cells; drug concentration 60-95 μM): more than 95%
VP6 expression level compared with the RV group ([4]; 75 μM): significantly decreased
VP6 expression level compared with the RV group ([4]; 80 μM): significantly decreased
VP6 expression level compared with the RV group ([4]; 85 μM): significantly decreased
concentration at which VP6 expression is inhibited most significantly ([4]; among 75 μM, 80 μM and 85 μM): 75 µM
